One assay concerns the target T1, HO-2 (rat brain) (Rattus norvegicus, UniProt P23711).
T1 construct: brain microsomes were used as a source of HO-2; from tissue; host or cells: brain microsomal fraction of adult male Sprague-Dawley rats
T1 sequence (P23711 1-315): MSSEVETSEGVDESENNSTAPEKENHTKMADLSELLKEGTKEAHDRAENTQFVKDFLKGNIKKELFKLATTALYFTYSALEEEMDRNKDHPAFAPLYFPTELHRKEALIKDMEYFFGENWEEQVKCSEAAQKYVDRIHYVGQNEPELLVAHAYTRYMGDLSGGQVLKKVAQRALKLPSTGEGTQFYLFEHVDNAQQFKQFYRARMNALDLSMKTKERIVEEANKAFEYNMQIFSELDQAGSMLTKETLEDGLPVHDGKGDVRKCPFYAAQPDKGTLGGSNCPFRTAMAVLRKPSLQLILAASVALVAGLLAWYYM
As to the kind of experiment: HO enzymatic activity in rat brain microsomal fraction (CO formed from methemalbumin, gas chromatography). The format is biochemical.

The target of the next assay is T2, HO-1 (rat spleen) (Rattus norvegicus, UniProt P06762).
T2 construct: Spleen microsomes were used as a source of HO-1; from tissue; host or cells: spleen microsomal fraction of adult male Sprague-Dawley rats
T2 sequence (P06762 1-289): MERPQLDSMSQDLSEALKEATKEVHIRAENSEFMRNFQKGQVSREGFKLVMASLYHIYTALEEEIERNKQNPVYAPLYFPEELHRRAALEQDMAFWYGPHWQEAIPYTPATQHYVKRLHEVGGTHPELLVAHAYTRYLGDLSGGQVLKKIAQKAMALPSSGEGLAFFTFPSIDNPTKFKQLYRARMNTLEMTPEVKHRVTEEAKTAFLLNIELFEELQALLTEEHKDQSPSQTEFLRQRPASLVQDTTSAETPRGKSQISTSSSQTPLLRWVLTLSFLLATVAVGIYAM
Nature of the assay: HO enzymatic activity in rat spleen microsomal fraction (CO formed from methemalbumin, gas chromatography). The format is biochemical.

[1] abbreviates: rat brain microsomes, average ± standard deviation of replicate experiments, read-out: IC50 HO-2 (rat brain)/μM.
Where [2] appears, read: rat spleen microsomes, average ± standard deviation of replicate experiments, read-out: IC50 HO-1 (rat spleen)/μM.
The mark [3] stands for this setting: rat brain microsomes, average ± standard deviation of replicate experiments.

Each structure is given as a SMILES string. Where a name gives a salt, the structure may show the parent alone. Read-outs that look alike come from different tables or passages of the source. Some results are limits rather than exact numbers.

With `c1ccc(CCC2(Cn3ccnn3)OCCO2)cc1` [2-(2-phenethyl)-2-{(1H-[1,2,3]triazol-1-yl)methyl}-1,3-dioxolane hydrochloride], the IC50 at HO-2 (rat brain) (setting [1]) and on HO-1 (rat spleen) (setting [2]) was greater than 100 µM throughout.
In the case of `C[C@H]1CO[C@](CCc2ccc(Cl)cc2)(Cn2ccnc2)O1` [(2S,4S)-2-[2-(4-chlorophenyl)ethyl]-2-[(1H-imidazol-1-yl)methyl]-4-methyl-1,3-dioxolane hydrochloride], the figures for the IC50 on HO-2 (rat brain) (setting [1]) and on HO-1 (rat spleen) (setting [2]) were greater than 100 µM and 12 ± 4 µM, respectively.
On the same counts, the results for `COC(=O)Nc1nc2cc(C(=O)c3ccc(F)cc3)ccc2[nH]1` [Flubendazol, reference compound] are greater than 100 µM and greater than 100 µM.
On the same counts, the results for `O=C(Cn1ccnc1)c1ccc(Cc2ccccc2)cc1` [1-(4-benzyl-phenyl)-2-imidazol-1-yl-ethanone hydrochloride] are 2.3 ± 0.2 µM and 1.99 ± 0.05 µM.
On the same counts, the results for `C[C@@H]1CO[C@@](CCc2ccccc2)(Cn2ccnc2)O1` [(2R,4R)-2-[2-(4-phenyl)ethyl]-2-[(1H-imidazol-1-yl)methyl]-4-methyl-1,3-dioxolane hydrochloride] are greater than 43 µM and 2 ± 1 µM.
For the molecule `NCC(=O)c1ccc(Br)cc1`, the IC50 against HO-2 (rat brain) and on HO-1 (rat spleen) was greater than 100 µM throughout.
Turning to `Fc1ccc(-c2ccno2)cc1`, the IC50 at HO-2 (rat brain) (setting [1]) and at HO-1 (rat spleen) (setting [2]) was greater than 100 µM each time.
With `COc1ccc(SC[C@@H]2CO[C@@](CCc3ccc(Cl)cc3)(Cn3ccnc3)O2)cc1` [(2R,4S)-2-[2-(4-chlorophenyl)ethyl]-2-[(1H-imidazol-1-yl)methyl]-4-[{(4-methoxyphenyl)thio}methyl]-1,3-dioxolane hydrochloride], the IC50 at HO-2 (rat brain) (setting [1]) was determined as 2.5 ± 0.4 µM; on HO-1 (rat spleen) (setting [2]), 0.7 ± 0.3 µM.
Consider `COc1ccc(CCN2CCC(Nc3nc4cc(C)c(C)cc4n3Cc3ccc(F)cc3)CC2)cc1`, for which the IC50 on HO-2 (rat brain) (setting [1]) is 91 ± 45 µM; on HO-1 (rat spleen) (setting [2]), greater than 100 µM.
Take `c1ccc(CCC2(Cn3cnc(-c4ccccc4)c3)OCCO2)cc1` [1-(2-Phenethyl-[1,3]dioxolan-2-ylmethyl)-4-phenyl-1H-imidazole hydrochloride]: the IC50 on HO-2 (rat brain) (setting [1]) and on HO-1 (rat spleen) (setting [2]) was greater than 100 µM throughout.
Take `O=C(CCc1ccccc1)Cn1nc(-c2ccccc2)nc1-c1ccccc1` [1-(3,5-Diphenyl-[1,2,4]triazol-1-yl)-4-phenyl-butan-2-one]: the IC50 on HO-2 (rat brain) (setting [1]) and on HO-1 (rat spleen) (setting [2]) was greater than 100 µM each time.
As for `CC(=O)C(Cc1ccccc1)n1cncn1` (racemic) [(±)-4-phenyl-3-[1,2,4]triazol-1-yl-butan-2-one], the “IC50 HO-2 (rat brain)/μM” value against HO-2 (rat brain) (setting [3]) is “INACTIVE”. Moreover, the IC50 at HO-1 (rat spleen) (setting [2]) is greater than 100 µM.
Regarding `OC(CCc1ccc(Cl)cc1)Cn1ccnc1` (centres unmarked) [4-(4-chlorophenyl)-1-(1H-imidazol-1-yl)butan-2-ol hydrochloride], the IC50 was 4 ± 0.6 µM at HO-2 (rat brain) (setting [1]) and 0.5 ± 0.1 µM at HO-1 (rat spleen) (setting [2]).
On the same counts, the results for `OC(Cn1ccnc1)c1ccc(Cl)cc1` (racemic) [(±)-1-(4-chloro-phenyl)-2-imidazol-1-yl-ethanol hydrochloride] are 16 ± 8 µM and 1.19 ± 0.03 µM.
Turning to `C[C@@H]1CO[C@](CCc2ccc(Cl)cc2)(Cn2ccnc2)O1` [(2S,4R)-2-[2-(4-chlorophenyl)ethyl]-2-[(1H-imidazol-1-yl)methyl]-4-methyl-1,3-dioxolane hydrochloride], the IC50 at HO-2 (rat brain) (setting [1]) was greater than 100 µM; at HO-1 (rat spleen) (setting [2]) it was 20 ± 4 µM.
On the same counts, the results for `Cc1ccc(CCC(=O)Cn2ccnc2)cc1` [1-Imidazol-1-yl-4-(4-methylphenyl)butan-2-one hydrochloride] are 3.7 ± 0.1 µM and 0.76 ± 0.01 µM.
In the case of `FC(F)(F)c1ccc(CCCCn2ccnc2)cc1` [1-[4-(4-(Trifluoromethyl)phenyl)butyl]-1H-imidazole hydrochloride], the IC50 on HO-2 (rat brain) (setting [1]) is greater than 100 µM; on HO-1 (rat spleen) (setting [2]), 0.38 ± 0.09 µM.
On the same counts, the results for `OC(CCc1ccccc1)Cn1cnnn1` (racemic) [(±)-4-phenyl-1-tetrazol-1-yl-butan-2-ol hydrochloride] are greater than 100 µM and 56 ± 6 µM.
On the same counts, the results for `Clc1ccc(CC[C@]2(Cn3ccnc3)OC[C@@H](CSc3ccc4ccccc4c3)O2)cc1` [(2S,4S)-2-[2-(4-chlorophenyl)ethyl]-2-[(1H-imidazol-1-yl)methyl]-4-[{(2-naphthyl)thio}methyl]-1,3-dioxolane hydrochloride] are 62 ± 7 µM and 14 ± 2 µM.
In the case of `COC(=O)Nc1nc2ccc([S+]([O-])c3ccccc3)cc2[nH]1` (centres unmarked) [(5-benzenesulfinyl-1H-benzoimidazol-2-yl)-carbamic acid methyl ester], the values for the IC50 at HO-2 (rat brain) (setting [1]) and at HO-1 (rat spleen) (setting [2]) were greater than 100 µM and 115 µM, respectively.
For `COc1ccc(CCN2CCC(Nc3nc4ccccc4n3Cc3ccccc3)CC2)cc1`, in that order: 60 ± 18 µM and greater than 100 µM.
Regarding `O=C(Cn1ccnc1)c1ccc(I)cc1` [2-imidazol-1-yl-1-(4-iodo-phenyl)ethanone], the IC50 at HO-2 (rat brain) (setting [1]) came out at 25 ± 5 µM; at HO-1 (rat spleen) (setting [2]), 4 ± 1 µM.
For `O=C(Cn1cncn1)c1ccc(Cl)cc1Cl` [1-(2,4-dichloro-phenyl)-2-[1,2,4]triazol-1-yl-ethanone], in that order: greater than 100 µM and 4.1 ± 0.9 µM.
With `Cl.c1cn(CC2OCCO2)cn1` [1-((1,3-Dioxolan-2-yl)methyl)-1H-imidazole hydrochloride], the “IC50 HO-2 (rat brain)/μM” value against HO-2 (rat brain) (setting [3]) is given as “Inactive”. Also, the “IC50 HO-1 (rat spleen)/μM” value at HO-1 (rat spleen) (rat spleen microsomes, average ± standard deviation of replicate experiments) is listed as “Inactive”.
For `Clc1ccc(CC[C@@]2(Cn3ccnc3)OCC(COc3ccc(C45CC6CC(CC(C6)C4)C5)cc3)O2)cc1` (stereo in doubt) [(2R,4S)-2-[2-(4-chlorophenyl)ethyl]-2-[(1H-imidazol-1-yl)methyl]-4-[(4-adamantan-1-yl-phenoxy)methyl]-1,3-dioxolane hydrochloride], the IC50 on HO-2 (rat brain) (setting [1]) and on HO-1 (rat spleen) (setting [2]) was greater than 100 µM throughout.
`CS(=O)(=O)c1nnn(CC(=O)CCc2ccccc2)n1` [1-(5-Methanesulfonyl-tetrazol-2-yl)-4-phenyl-butan-2-one]: the IC50 on HO-2 (rat brain) (setting [1]) and on HO-1 (rat spleen) (setting [2]) was greater than 100 µM each time.
With `COc1ccc(OCC2CO[C@](CCc3ccc(Cl)cc3)(Cn3ccnc3)O2)cc1` (stereo in doubt) [(2S,4S)-2-[2-(4-chlorophenyl)ethyl]-2-[(1H-imidazol-1-yl)methyl]-4-[(4-methoxyphenyloxy)meth-yl]-1,3-dioxolane hydrochloride], the IC50 was 29 ± 6 µM on HO-2 (rat brain) (setting [1]) and 28 ± 15 µM at HO-1 (rat spleen) (setting [2]).
For `Cc1nccn1CC(=O)CCc1ccccc1` [1-(2-methyl-imidazol-1-yl)-4-phenyl-butan-2-one hydrochloride], in that order: greater than 100 µM and greater than 100 µM.
For `O=C(CCc1ccc(OC(=O)c2ccccc2)cc1)Cn1ccnc1` [4-(4-(1H-Imidazol-1-yl)-3-oxobutyl)phenyl benzoate hydrochloride], in that order: greater than 100 µM and 6.7 ± 0.2 µM.
For `C[C@@H]1CO[C@@](CCc2ccc(Cl)cc2)(Cn2ccnc2)O1` [(2R,4R)-2-[2-(4-chlorophenyl)ethyl]-2-[(1H-imidazol-1-yl)methyl]-4-methyl-1,3-dioxolane hydrochloride], in that order: 305 ± 25 µM and 0.8 ± 0.2 µM.
Regarding `c1ccc(-c2ccc(C3(Cn4ccnc4)OCCO3)cc2)cc1` [1-(2-biphenyl-4-yl-[1,3]dioxolan-2-ylmethyl)-1H-imidazole hydrochloride], the IC50 is greater than 100 µM at HO-2 (rat brain) (setting [1]) and 16.2 ± 0.4 µM on HO-1 (rat spleen) (setting [2]).
On the same counts, the results for `CSc1ncn(CC(=O)CCc2ccccc2)n1` [1-(3-Methylsulfanyl-[1,2,4]triazol-1-yl)-4-phenyl-butan-2-one] are greater than 100 µM and greater than 100 µM.
On the same counts, the results for `O=[N+]([O-])c1ccc(SC[C@@H]2CO[C@@](CCc3ccc(Cl)cc3)(Cn3ccnc3)O2)cc1` [(2R,4S)-2-[2-(4-chlorophenyl)ethyl]-2-[(1H-imidazol-1-yl)methyl]-4-[{(4-nitrophenyl)thio}meth-yl]-1,3-dioxolane hydrochloride] are 19 ± 2 µM and 6 ± 2 µM.
On the same counts, the results for `O=C(CCc1ccccc1)Cn1cncc1Br` [1-(5-Bromo-1H-imidazol-1-yl)-4-phenyl-2-butanone] are greater than 100 µM and 22 ± 2 µM.
Turning to `COc1ccc(OCC2CO[C@@](CCc3ccc(Cl)cc3)(Cn3ccnc3)O2)cc1` (stereo in doubt) [(2R,4S)-1-[2-[2-(4-chloro-phenyl)-ethyl]-4-(4-methoxy-phenoxymethyl)-[1,3]dioxolan-2-ylmethyl]-1H-imidazole hydrochloride], the IC50 on HO-2 (rat brain) (setting [1]) amounted to 19 ± 7 µM; at HO-1 (rat spleen) (setting [2]), 1.33 ± 0.03 µM.
For `c1ccc(Cn2ccnc2)cc1` [1-Benzyl-1H-imidazole hydrochloride], the IC50 on HO-2 (rat brain) was greater than 100 µM; at HO-1 (rat spleen) it was 44 ± 9 µM.
Take `CC(O)C(Cc1ccc(Cl)cc1)n1ccnc1` (racemic) [(±)-4-(4-chlorophenyl)-3-imidazol-1-yl-butan-2-ol hydrochloride]: the figures for the IC50 against HO-2 (rat brain) and against HO-1 (rat spleen) were greater than 100 µM and 40 ± 2 µM, respectively.

Source of the values: patent US20140155445A1, “Compounds and Methods for Treating Cancer and Diseases of the Central Nervous System” (Osta Biotechnologies Inc., priority 2007, published 2014).
